# According to patent US20220306603A1, “TARGETING DNA REPAIR IN TUMOR CELLS VIA INHIBITION OF ERCC1-XPF” (The Governors of the University of Alberta, priority 2019, published 2022):
# Entries after “also recorded” stand apart in the source; their conditions may differ.
# Tests used:
# CYP1A2 = target: T1, CYP1A2 (Homo sapiens, UniProt P05177); assay: CYP450 inhibition, CYP1A2
# T1 sequence (P05177 1-516): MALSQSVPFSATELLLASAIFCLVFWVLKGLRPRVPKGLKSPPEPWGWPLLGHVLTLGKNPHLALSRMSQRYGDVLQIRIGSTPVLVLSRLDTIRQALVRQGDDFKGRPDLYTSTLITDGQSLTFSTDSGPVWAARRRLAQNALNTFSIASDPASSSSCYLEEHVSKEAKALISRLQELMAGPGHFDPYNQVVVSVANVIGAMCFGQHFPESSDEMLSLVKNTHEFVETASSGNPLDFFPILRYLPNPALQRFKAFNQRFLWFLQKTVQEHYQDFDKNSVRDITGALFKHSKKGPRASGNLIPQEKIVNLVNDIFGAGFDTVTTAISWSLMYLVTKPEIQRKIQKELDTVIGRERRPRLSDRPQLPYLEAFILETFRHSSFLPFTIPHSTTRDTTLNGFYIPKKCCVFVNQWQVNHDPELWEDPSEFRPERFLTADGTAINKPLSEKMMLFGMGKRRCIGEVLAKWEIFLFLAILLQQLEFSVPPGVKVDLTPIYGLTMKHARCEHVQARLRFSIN
# [1] = ADME screening: solubility; type: physicochemical; details: Table 8
# serum proteins = assay: ADME screening: serum protein binding; type: in vitro ADME; details: Table 8
# HCT116 cells [2] = assay: Clonogenic survival assay, UV treatment; type: cell-based, human; details: 254 nm UV 0-10 J/m^2; compound 0.5-4 μM
# Protocol: UV treatment: HCT116 cells (100-800 cells depending on the UV dose) were plated in triplicate in 60-mm petri dishes. The cells were incubated overnight at 37° C. in a humidified atmosphere containing 5% CO2 to allow for cell attachment. […] Medium was removed again, and cells were exposed to increasing doses (0-10 J/m^2) of UV-C radiation and then incubated for a further 10 days in the presence of inhibitor at 37° C. in a 5% CO2 atmosphere to allow for colony formation. After this period plates were stained with crystal violet and colonies were counted using a Colcount instrument (Oxford Optronix, Abingdon UK). Finally, plating efficiency and surviving fraction were calculated.
# [3] = target: T2, truncated ERCC1 (dERCC1) and XPF (dXPF) dimer (Homo sapiens, UniProt Q92889); assay: Micro Scale Thermophoresis of truncated ERCC1-XPF; type: binding; details: truncated dimer compared to individual peptides
# T2 construct: XPF (dXPF, codons 667-916); made in house
# T2 sequence (Q92889 667-916): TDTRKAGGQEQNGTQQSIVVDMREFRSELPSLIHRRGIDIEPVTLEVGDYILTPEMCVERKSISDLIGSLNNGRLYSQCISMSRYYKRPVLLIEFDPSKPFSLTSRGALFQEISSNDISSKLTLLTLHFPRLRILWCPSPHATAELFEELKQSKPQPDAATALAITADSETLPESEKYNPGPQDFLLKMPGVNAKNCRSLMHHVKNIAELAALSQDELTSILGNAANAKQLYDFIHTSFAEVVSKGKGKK
# Description: MST allows for the detection of interactions and changes in the molecular properties of biomolecules at low nanomolar concentrations. We synthesized two human recombinant truncated forms of ERCC1 (dERCC1, codons 96-297) and XPF (dXPF, codons 667-916) for this study because these peptides contain the subunit interaction domains that the inhibitor was designed to disrupt.
# HCT116 cells [4] = assay: Cellular repair of UV-induced cyclobutane pyrimidine dimers (immunofluorescence); type: cell-based, human
# [5] = Microsomal stability in vitro (human liver microsomes)
smiles,measurement,setting,value
"COc1ccc2nc3cc(Cl)ccc3c(Nc3ccc(O)c(CN4CCN(CCN(C)C)CC4)c3)c2c1 [Compound A4, 4-((6-Chloro-2-methoxyacridin-9-yl)amino)-2-((4-(2-(dimethylamino)ethyl)piperazin-1-yl)methyl) phenol]",IC50,CYP1A2,6.4 µM
same,Solubility (in words),[1],Poor
same,Serum protein binding (% bound),serum proteins,(99.9) % bound
same,Serum protein binding (in words),serum proteins,Strong
same,"sensitisation to UV radiation, clonogenic survival (in words)",HCT116 cells [2],significantly reduced survival
same,change in thermophoresis properties (in words),[3],induced a larger change in the thermophoresis properties of the truncated dimer
same,inhibition of cellular removal of CPDs / thymidine dimers (in words),"HCT116 cells [4]; 8 J/m^2 UV-C, up to 24 h post-irradiation",significantly different; also recorded: significant inhibition of removal of CPDs
same,CPDs removed over 24 hours after UV exposure,"HCT116 cells [4]; 8 J/m^2 UV, control approximately 80%",approximately 60%
same,metabolism on exposure to human liver microsomes (in words),[5],metabolism in the midrange
same,Microsomal stability in vitro CLint (in words),[5]; Table 8,Low
